{"source": "paper PMC5667507", "about": "“A novel ^18F-labelled high affinity agent for PET imaging of the translocator protein” (Chemical Science, 2015)", "test_system": "TSPO", "assay": "Ex vivo autoradiography, U87MG-Luc2 orthotopic glioma bearing mice", "assay_type": "in vivo, mouse", "description": "To investigate the behavior of [^18F]-AB5186 6 in vivo, ex vivo autoradiography was performed using mice bearing a U87MG-Luc2 orthotopic model of human glioblastoma. Animals were pre-treated with either vehicle (n = 4) or 1 mg kg^–1 unlabelled PK11195 (n = 4) administered intravenously 10 min prior to [^18F]-AB5186 6 intravenous injection. Animals were killed and brains were removed 20 min after the radiotracer was given and frozen. Cryostat sections were then used to generate autoradiograms. […] The non-tumour bearing contralateral side of the brain lacked proliferating cells and minimal TSPO expression and immunolabelled microglia were visible (data not shown). Under normal circumstances microglia express low levels of TSPO in the brain. […]\ntemperature. Non-specific binding was determined in adjacent sections by incubating with [18F]- AB5186 6 in the presence of 10 µM PK11195 (Tocris, UK). […]\nFollowing this, the tissues were washed with 0.1% Tween® 20 in TBS (2 × 5 min) and a secondary one hour incubation at room temperature was performed using Dako horseradish-peroxidase labelled anti-mouse or anti-rabbit polymers. The sections were once again washed using 0.1% Tween® 20 in TBS (2 × 5 min) and the presence of antibody was detected using the 3,3’- diaminobenzidine chromagen solution diluted in Dako DAB+ substrate buffer. […]"}
{"smiles": "CCN(CC)C(=O)c1nc2ccccc2c(-c2ccccc2)c1C[18F]", "note": "[[^18F]-AB5186 6]", "values": [{"measurement": "binding (tumour to contralateral optical density ratio) after PK11195 blockade", "setting": "1 mg kg^-1 unlabelled PK11195 i.v. 10 min before tracer, P = 0.0002", "value": "significantly reduced"}, {"measurement": "total binding, tumour tissue compared to contralateral region", "setting": "ex vivo autoradiography, vehicle pre-treatment, brains removed 20 min after tracer i.v.", "value": "substantially higher"}]}
